Measurements reported in US20180221435A1, “ITCH TREATMENT USING A COMBINATION OF NEUROKININ-1, GASTRIN RELEASING PEPTIDE, AND GLUTAMATE RECEPTOR ANTAGONISTS” (The Regents of the University of California, priority 2013, published 2018).
Where two headings read alike, the source gives them in different places.

Assays:
[1] = at the dose and in the condition of the same Table I line; cited from earlier work
[2] = tested on: superficial dorsal horn neurons; experiment: In vivo single-unit recording, id chloroquine-evoked firing, spinal superfusion of antagonists; design: species or system mice
Description: (§1) The single-unit recording from the lumbar spinal cord was conducted as previously detailed [Akiyama T et al., Journal of neurophysiology 102(4):2176-2183 (2009); Akiyama T et al., The Journal of neuroscience: the official journal of the Society for Neuroscience 29(20):6691-6699 (2009)]. Anesthesia was induced by sodium pentobarbital (60 mg/kg ip) and maintained by supplemental injections (10-20 mg/kg/hr). A gravity-driven perfusion system allowed artificial cerebrospinal fluid (Krebs: 117 mM NaCl, 3.6 mM KCl, 2.5 mM CaCl2, 1.2 mM MgCl2, 1.2 mM NaH2PO4, 25 mM NaHCO3 and 11 mM glucose which was equilibrated with 95% 02 and 5% CO2 at 37° C.) to be superfused continually over the exposed lumbosacral spinal cord [Akiyama T et al., PloS one 6(7):e22665 (2011)]. A tungsten microelectrode recorded single-unit activity in the lumbar spinal cord. A chemical search strategy [Akiyama T et al., Journal of neurophysiology 102(4):2176-2183 2009; Akiyama T et al., The Journal of neuroscience: the official journal of the Society for Neuroscience 29(20):6691-6699 (2009)] was used to identify and isolate chloroquine-responsive units. Our search strategy was intended to maximize the chance of isolating a chloroquine-responsive neuron; it was assumed that such neurons either gave rise to ascending projections, or served as interneurons in segmental scratch-reflex circuitry, and no attempt was presently made to distinguish between these possibilities.
Briefly, a small (˜0.25 μl) intradermal (id) microinjection of chloroquine (100 μg/μl) was made in the ventral hindpaw and a spontaneously active unit in the superficial lumbar dorsal horn (depth<300 um) was isolated. After the spontaneous activity had waned, chloroquine (1 μl, 100 μg/μl) was injected again at the same site through the same needle. […] Responses were usually recorded for at least 30 minutes, although in many cases unit firing declined over a shorter period.
Action potentials were recorded to a computer and counted using Chart software (AD Instruments, Colorado Springs Colo.) and Spike2 software (CED Instruments). Ongoing responses elicited by chloroquine, histamine, or AITC were averaged at 20-second intervals before, during and after the antagonist application, and compared by one way repeated-measures analysis of variance (ANOVA) followed by post-hoc Bonferroni test, with p<0.05 set as significant. The mean firing rate was calculated over a 20-second period 40 seconds after the antagonist application, and compared by one way ANOVA followed by post-hoc Bonferroni test, with p<0.05 set as significant. The criterion for decrease in ongoing firing was >70% decrease below the ongoing activity elicited by pruritogen over a 20-second period 40 seconds after the antagonist application. Mean peak responses elicited by noxious pinch were compared by one way repeated-measures ANOVA followed by post-hoc Bonferroni test, with p<0.05 set as significant. At the end of each experiment, an electrolytic lesion was made at the spinal cord recording site. The spinal cord was postfixed in 10% buffered formalin, cut in 50 μm frozen sections, and examined under the light microscope to identify lesions.

[3] = tested on: superficial dorsal horn neurons; experiment: In vivo single-unit recording, id histamine-evoked firing, spinal superfusion of antagonists; design: species or system mice; settings: for Percentages of dorsal horn units that exhibited a decrease of 70% or more in firing rate following spinal superfusion of antagonists: id histamine-evoked firing, superfusion 1 min, RC-3095 20 μM, L-733060 200 μM, CNQX 100 μM
Description: (§2) Akiyama T et al., The Journal of neuroscience: the official journal of the Society for Neuroscience 29(20):6691-6699 (2009)]. Anesthesia was induced by sodium pentobarbital (60 mg/kg ip) and maintained by supplemental injections (10-20 mg/kg/hr). […] A tungsten microelectrode recorded single-unit activity in the lumbar spinal cord. A chemical search strategy [Akiyama T et al., Journal of neurophysiology 102(4):2176-2183 2009; […] Following mechanical stimulation, histamine (50 μg) was injected id within the same receptive field at a different location via a separate injection cannula. Following the id histamine injection, we tested the effects of antagonists for the receptors of NK1, GRP, or AMPA/kainate in the same manner as described above for chloroquine. […] Following the AITC application, we tested the effects of the NK-1 receptor antagonist, the AMPA/kainate receptor antagonist, or a combination of both antagonists in the same manner as described above for chloroquine. Action potentials were recorded to a computer and counted using Chart software (AD Instruments, Colorado Springs Colo.) and Spike2 software (CED Instruments). […] Mean peak responses elicited by noxious pinch were compared by one way repeated-measures ANOVA followed by post-hoc Bonferroni test, with p<0.05 set as significant. At the end of each experiment, an electrolytic lesion was made at the spinal cord recording site.

[4] = tested on: superficial dorsal horn neurons; experiment: In vivo single-unit recording, topical AITC-evoked firing, spinal superfusion of antagonists; design: species or system mice
Description: as §2

[5] = tested on: superficial dorsal horn neurons; experiment: In vivo single-unit recording, noxious pinch-evoked responses, spinal superfusion of antagonists; design: species or system mice; settings: pinch at end of 1 min superfusion
Description: Akiyama T et al., The Journal of neuroscience: the official journal of the Society for Neuroscience 29(20):6691-6699 (2009)]. Anesthesia was induced by sodium pentobarbital (60 mg/kg ip) and maintained by supplemental injections (10-20 mg/kg/hr). […] A tungsten microelectrode recorded single-unit activity in the lumbar spinal cord. A chemical search strategy [Akiyama T et al., Journal of neurophysiology 102(4):2176-2183 2009; […] Units were classified as wide dynamic range (WDR)-type if they responded in a graded manner to innocuous mechanical stimulation (brushing, cotton wisp) and noxious pinch, or nociceptive-specific (NS) if they responded to noxious pinch (and to the 55 mN von Frey stimulus) but not to the cotton wisp or brush stimuli. […] Akiyama T et al., The Journal of neuroscience: the official journal of the Society for Neuroscience 29(20):6691-6699 (2009)]. […] At the end of the antagonist superfusion, the noxious pinch stimulus was delivered again at the same site on the receptive field. Thirty minutes later, the noxious pinch stimulus was delivered in the same manner. Action potentials were recorded to a computer and counted using Chart software (AD Instruments, Colorado Springs Colo.) and Spike2 software (CED Instruments). […]

[6] = tested on: superficial dorsal horn neurons; experiment: Baseline activity of superficial dorsal horn neurons before and after antagonist application; type: in vivo, mice; settings: ± SEM
Description: as §1
There was no significant effect of any of the antagonists on the baseline activity of superficial dorsal horn neurons that were subsequently show to respond to pruritogens. […] Values prior to, and after administration of each antagonist individually or in combination, are as follows. NK-1 antagonist L-733060: pre-application 0.88 Hz±0.23 (SEM), post-antagonist 0.72 Hz±0.19 (n=10). GRPR antagonist RC-3095: pre-application 0.54 Hz±0.54, post-antagonist: 0.53 Hz±0.53 (n=4). CNQX: pre-application 0.53 Hz±0.14, post-antagonist 0.64 Hz±0.21 (n=22). CNQX+L-733060: pre-application 0.52 Hz±0.17, post-antagonists 0.43 Hz±0.11 (n=26). CNQX+L-733060+RC-3095: pre-application 0.14 Hz±0.06, post-antagonists 0.17 Hz±0.06 (n=9).

[7] = tested on: histamine-evoked scratching; settings: intrathecal L-733060 22.7 nmol or RC-3095 0.3 nmol, data adapted from Akiyama et al. 2013, cited from earlier work
DRG cells = experiment: Calcium imaging of DRG cells; settings: 898 DRG cells; chloroquine 300 μM, histamine 100 μM, 30 sec; ratio increase more than 10%

For `COc1ccc(OC(F)(F)F)cc1CN[C@H]1CCCN[C@H]1c1ccccc1` [AV608], the “Side Effects” value [1] is given as “well tolerated”.

In the case of `C[C@@H](O[C@H]1OCCN(Cc2n[nH]c(=O)[nH]2)[C@H]1c1ccc(F)cc1)c1cc(C(F)(F)F)cc(C(F)(F)F)c1` [Aprepitant], the “Side Effects” value [1] is given as “generally mild”.

In the case of `COc1ccc(-n2nnnc2C(F)(F)F)cc1CN[C@H]1CCCN[C@H]1c1ccccc1` [GR205171], the “Side Effects” value [1] is listed as “well-tolerated”.

In the case of `CC(=O)N1CCN([C@H]2CCN(C(=O)N(C)[C@H](C)c3cc(C(F)(F)F)cc(C(F)(F)F)c3)[C@@H](c3ccc(F)cc3C)C2)CC1` [GW679769], the “Side Effects” value [1] is listed as “well tolerated,”.

For `FC(F)(F)c1cc(CO[C@H]2CCCN[C@H]2c2ccccc2)cc(C(F)(F)F)c1` [L733060], the “chloroquine-evoked firing compared to vehicle superfusion” value ([2]; 40-60 s of superfusion, normalized firing, vs vehicle) was “did not produce a significant reduction in firing compared to vehicle superfusion”, the “chloroquine-evoked firing in NS cells” value ([2]; NS units, vs vehicle) was “but not NS cells” and the “chloroquine-evoked firing in WDR cells” value ([2]; WDR units, vs vehicle) was “significantly reduced”. The “chloroquine-evoked firing, effect of spinal superfusion” value ([2]; relative to chloroquine-evoked response prior to spinal superfusion) was “significantly attenuated after the cessation of superfusion”, the “histamine-evoked response of NS units” value ([3]; NS units, vs vehicle) was “failed to reduce” and the “histamine-evoked response of WDR units” value ([3]; WDR units, vs vehicle) was “failed to reduce”. For the same molecule, the “histamine-evoked firing, effect of spinal superfusion” value ([3]; all units) was “not significantly different from vehicle”, the “Percentages of dorsal horn units that exhibited a decrease of 70% or more in firing rate following spinal superfusion of antagonists” value [3] was 33% (6/18) and the “Percentages of dorsal horn units that exhibited a decrease of 70% or more in firing rate following spinal superfusion of antagonists” value ([3]; listed as NK-1 antagonist) was 33%. The “AITC-evoked firing, effect of spinal superfusion” value ([4]; topical AITC 75%) was “numerically reduced”, the “Percentages of dorsal horn units that exhibited a decrease of 70% or more in firing rate following spinal superfusion of antagonists” value ([4]; topical AITC-evoked firing, superfusion 1 min, L-733060 200 μM, CNQX 100 μM) was 22% (2/9) and the “noxious pinch-evoked response, effect of spinal superfusion” value [5] was “not reduced”. The “baseline neuronal firing rate, post-antagonist” value ([6]; averaged over 1 min following antagonist application) was 0.72 Hz, the “baseline neuronal firing rate, pre-application” value ([6]; averaged over 1 min prior to antagonist application) was 0.88 Hz and the “histamine-evoked scratching (scratch bouts/30 minutes)” value ([7]; listed as NK-1 antagonist) was “neither the NK-1 nor the GRPR antagonist attenuated”. For the same molecule, the “histamine-evoked scratching (scratch bouts/30 minutes)” value ([7]; listed as NK-1 receptor antagonist) was “not affected”.

In the case of `CC(=O)N1N=C(c2ccc(N)cc2)c2cc3c(cc2C[C@H]1C)OCO3` [Talampanel], the “Side Effects” value [1] is given as “Mild (fatigue,”.

In the case of `O=c1[nH]c2cc(C(F)(F)F)c(N3CCOCC3)cc2n(CP(=O)(O)O)c1=O` [ZK 200775], the “Side Effects” value [1] is given as “Sedation,”.

For `CCN(CC)CCCC(C)Nc1ccnc2cc(Cl)ccc12` (stereo not drawn) [chloroquine], the “percentage of DRG cells imaged that responded” value (DRG cells) was 8.4%.

In the case of `NCCc1c[nH]cn1` [histamine], the “percentage of DRG cells imaged that responded” value (DRG cells) is reported as 12.9%.
